Laboratory results taken from patent US6447997B1, “Gene coding for GADD153 as a clinical diagnostic and prognostic in cancer therapy” (Research Development Foundation, priority 1997, dated 2002).
pIC50: −log10 of the molar value.

Key:
[1] = tested on: GADD153 mRNA; experiment: GADD153 mRNA level in UMSCC10b cells and cDDP-resistant sublines after cDDP exposure, RT-PCR; type: cell-based, human
Method: In order to permit use of needle aspiration biopsies of tumors, the highly sensitive technique of RT-PCR rather than the less sensitive technique of Northern blot analysis was utilized throughout for quantitation of mRNA. The magnitude of the change in GADD153 mRNA level as a function of cisplatin (cDDP) concentration was determined by treating UMSCC10b cells with 0.1, 1, 10, or 100 μM cDDP for 1 h and quantifying GADD153 mRNA in untreated and treated cells harvested at 24 h by RT-PCR. The procedure is detailed in the attached examples. The results in FIG. 1 indicate that a concentration-dependent magnitude of increase in GADD153 mRNA levels reached 6-fold at the highest cDDP concentration tested. FIG. 2 depicts the time course of increase in GADD153 following a 1 h exposure to 100 μM cDDP. An increase in GADD153 mRNA level was evident at 12 h after cDDP exposure, and the peak occurred at 24 h followed by a decline to baseline levels by 96 h. β-ACTIN was used as an internal standard to normalize the data.
Without being held to a particular mechanism of action, the present inventors believe that the magnitude of increase in GADD153 mRNA level reflects the extent of tumor cell damage in a tumor treated with a chemotherapeutic agent. Supportive evidence was obtained using sublines of UMSCC10b selected for cDDP resistance. The parental cells, the 3-fold resistant subline UMSCC10b-Pt/S6 (15,16), and the 6-fold resistant subline UMSCC10b-Pt/S15 (15,16) were exposed to 2, 7, 12 μM cDDP for 1 h. These levels of exposure correspond to the IC10, IC50, and IC70 for the parental cell line, respectively.
To assure that the resistant variants had not lost their capacity to activate the GADD153 gene, and to validate the change in GADD153 level as a molecular marker of tumor injury in drug resistant as well as sensitive cells, the effect of cDDP applied at equitoxic concentrations was compared between the parental cells and the two resistant sublines.
To determine the time course of the change in GADD153 mRNA level, UMSCC10b cells were incubated with 100 μM cDDP for 1 h and total RNA was extracted at 0, 1, 2, 6, 12, 24, 48, 72 and 96 h after treatment. To analyze the effect of cDDP concentration on the expression of GADD153 , UMSCC10b cells were incubated for 1 h with various cDDP concentrations (0, 0.1, 1, 10, 100 and 1000 μM) and RNA was extracted 24 h after cDDP exposure.
UMSCC10b cells were harvested in 10 ml of denaturing solution (4 M guanidinium thiocyanate, 25 mM sodium citrate, pH 7, 0.5% sarcosyl, and 0.1 M 2-mercaptoethanol. After adding 1 ml of 2 M sodium acetate (pH 4), 10 ml of water-saturated phenol (pH 4) and 2 ml of chloroform:isoamyl alcohol (49:1) to the denatured cells, they were mixed thoroughly, placed on ice for 15 min, and centrifuged at 2800 rpm for 20 min at 4° C. The aqueous phase was collected and mixed with 10 ml of isopropyl alcohol, placed for 1 h at −20° C. and centrifuged. The pellet was dissolved in 1.8 ml of denaturing solution and 2 ml of isopropyl alcohol, placed for 1 h at −20° C. and centrifuged. The pellet was washed with 1 ml of 80% ethanol and then centrifuged at 5000 rpm for 10 min at room temperature. The RNA pellet was dried for 20 min in a tissue culture hood and resuspended in 100 μl of DEPC-treated water. Of this solution, 50 μl was used immediately for cDNA synthesis.
GADD153 message levels were quantified using a modification of the technique reported by Horikoshi et al (20). Total RNA acquired from the biopsies or xenografts was reverse-transcribed using random hexamers to produce cDNA (20,21,22). Serial dilutions of the CDNA were made and 5 μl of each dilution was placed in a sterile 0.5 ml Eppendorf tube. […]

[2] = tested on: UMSCC10b cells; experiment: Sensitivity to cDDP in vitro, clonogenic assay; type: cell-based, human; details: parental cell line, 1 h exposure
Method: The sensitivity of the UMSCC10b cell line and its cDDP-resistant variants to cDDP was determined by clonogenic assay using a 1 h cDDP exposure. A single-cell suspension was plated into 60 mm tissue culture dishes (Corning) at 300 cells per dish in fresh medium. After incubation for 24 h at 37° C., cells had attached to the plates and cDDP was added to the cells and incubated for 1 h following which the cells were washed twice with phosphate-buffered saline and 5 ml of fresh medium was added. Cultures were incubated for an additional 13-15 days following which there were fixed with methanol, stained with Giemsa, and clusters of >50 cells were scored as colonies. cDDP-selected cells were cultured in drug-free media for 2 weeks before cDDP sensitivity was determined by clonogenic assay.

[3] = UMSCC10b cells, 1 h exposure to 100 μM cDDP

## [NH2][Pt]([NH2])([Cl])[Cl] [cDDP, cisplatin]
[1]; 3-fold resistant variant UMSCC10b-Pt/S6, 2, 7, 12 μM cDDP for 1 h (equimolar)
  magnitude of the increase in GADD153 mRNA level: lower than in the parental cells
[1]; 6-fold resistant variant UMSCC10b-Pt/S15, 2, 7, 12 μM cDDP for 1 h (equimolar)
  expression of GADD153: did not increase above its baseline level
[1]; [3]
  time at which increase in GADD153 mRNA level was evident: 12 h
  time of decline of GADD153 mRNA to baseline levels: ≤ 96 h
  time of peak GADD153 mRNA level: 24 h
[1]; UMSCC10b cells, 1 h exposure, highest cDDP concentration tested (100 μM), harvested at 24 h
  magnitude of increase in GADD153 mRNA levels: 6 fold
[1]; parental cells and two resistant sublines, IC10, IC50, IC70
  change in expression of GADD153 at equitoxic concentrations: no difference between the cell lines
[2]
  IC10: 2 µM
  pIC50: 5.15
  IC70: 12 µM
